Measurements as given in ChEMBL document CHEMBL3885861, “Open TG-GATES”.

Species: Rattus norvegicus
Assay: Open TG-GATES - Regimen: Daily Repeat
Type: toxicity, organism-based, Sprague-Dawley
Design: regimen Daily Repeat, gender Male, age 6 weeks
Settings: in vivo, po, route gavage; for APTT / Bas / Eos / Fbg / Hb / Ht / Lym / MCH / MCV / Mono / Neu / PT / Plat / RBC / Ret / WBC: tissue Blood; for KIDNEY_L / KIDNEY_R / KIDNEY_TOTAL: tissue Kidney; for LIVER: tissue Liver; for ALP / ALT / AST / BUN / CRE / Ca / Cl / DBIL / GLC / IP / K / LDH / Na / PL / RALB / TBIL / TP / gamma-GTP: tissue Plasma
[1] = 30 mg/kg, 72 h, dose level Low, time 3 day
[2] = 30 mg/kg, […], dose level Low, time 7 day
[3] = 30 mg/kg, […], dose level Low, time 14 day
[4] = 30 mg/kg, […], dose level Low, time 28 day
[5] = 100 mg/kg, 72 h, dose level Middle, time 3 day

SMILES: NC(=O)N1c2ccccc2C=Cc2ccccc21 [CARBAMAZEPINE]
- APTT [1]: 19.7 s
- Bas [1]: 0%
- Eos [1]: 1%
- Fbg [1]: 213 mg/dL
- Hb [1]: 13.4 g/dL
- Ht [1]: 39.4%
- Lym [1]: 80.4%
- MCH [1]: 21 pg
- MCV [1]: 62 fL
- Mono [1]: 3.4%
- Neu [1]: 14%
- PT [1]: 12.2 s
- Plat [1]: 120.4 x10_4/uL
- RBC [1]: 636 x10_4/ul
- Ret [1]: 5.2%
- WBC [1]: 98.2 x10_2/uL
- KIDNEY_L [1]: 1 g
- KIDNEY_R [1]: 1 g
- KIDNEY_TOTAL [1]: 2 g
- LIVER [1]: 11.7 g
- ALP [1]: 1007.4 IU/L
- ALT [1]: 35.6 IU/L
- AST [1]: 66.6 IU/L
- BUN [1]: 14.8 mg/dL
- CRE [1]: 0.4 mg/dL
- Ca [1]: 10.8 mg/dL
- Cl [1]: 103.2 meq/L
- DBIL [1]: 0.094 mg/dL
- GLC [1]: 209.6 mg/dL
- IP [1]: 7.6 mg/dL
- K [1]: 3.5 meq/L
- LDH [1]: 197.2 IU/L
- Na [1]: 140 meq/L
- PL [1]: 148.8 mg/dL
- RALB [1]: 3.3 g/dL
- TBIL [1]: 0.1 mg/dL
- TP [1]: 5.6 g/dL
- gamma-GTP [1]: 1.2 IU/L
- TERMINAL_BW [2]: 270.1 g
- TERMINAL_BW [3]: 327.6 g
- TERMINAL_BW [4]: 366.9 g
- APTT [2]: 21.4 s
- Bas [2]: 0%
- Eos [2]: 0.8%
- Fbg [2]: 214.2 mg/dL
- Hb [2]: 13.7 g/dL
- Ht [2]: 40.2%
- Lym [2]: 83.2%
- MCH [2]: 20.8 pg
- MCV [2]: 61.1 fL
- Mono [2]: 2.4%
- Neu [2]: 12.6%
- PT [2]: 12 s
- Plat [2]: 127.1 x10_4/uL
- RBC [2]: 658.2 x10_4/ul
- Ret [2]: 4.4%
- WBC [2]: 103.7 x10_2/uL
- APTT [3]: 20.7 s
- Bas [3]: 0%
- Eos [3]: 1%
- Fbg [3]: 206.2 mg/dL
- Hb [3]: 14.3 g/dL
- Ht [3]: 41.1%
- Lym [3]: 83%
- MCH [3]: 20.4 pg
- MCV [3]: 58.8 fL
- Mono [3]: 2.4%
- Neu [3]: 12.6%
- PT [3]: 12.2 s
- Plat [3]: 119.9 x10_4/uL
- RBC [3]: 700.8 x10_4/ul
- Ret [3]: 4%
- WBC [3]: 100 x10_2/uL
- APTT [4]: 21 s
- Bas [4]: 0%
- Eos [4]: 0.8%
- Fbg [4]: 197.8 mg/dL
- Hb [4]: 15.9 g/dL
- Ht [4]: 45.7%
- Lym [4]: 83%
- MCH [4]: 19.5 pg
- MCV [4]: 55.9 fL
- Mono [4]: 2.2%
- Neu [4]: 12.6%
- PT [4]: 12.3 s
- Plat [4]: 108.1 x10_4/uL
- RBC [4]: 820.4 x10_4/ul
- Ret [4]: 2.2%
- WBC [4]: 127.9 x10_2/uL
- KIDNEY_L [2]: 1.1 g
- KIDNEY_R [2]: 1.1 g
- KIDNEY_TOTAL [2]: 2.2 g
- KIDNEY_L [3]: 1.3 g
- KIDNEY_R [3]: 1.3 g
- KIDNEY_TOTAL [3]: 2.6 g
- KIDNEY_L [4]: 1.3 g
- KIDNEY_R [4]: 1.3 g
- KIDNEY_TOTAL [4]: 2.6 g
- LIVER [2]: 12.5 g
- LIVER [3]: 15.3 g
- LIVER [4]: 14.4 g
- ALP [2]: 876.6 IU/L
- ALT [2]: 37 IU/L
- AST [2]: 70.6 IU/L
- BUN [2]: 16.2 mg/dL
- CRE [2]: 0.4 mg/dL
- Ca [2]: 10.4 mg/dL
- Cl [2]: 100.8 meq/L
- DBIL [2]: 0.088 mg/dL
- GLC [2]: 233.6 mg/dL
- IP [2]: 8.2 mg/dL
- K [2]: 3.7 meq/L
- LDH [2]: 187.4 IU/L
- Na [2]: 139.4 meq/L
- PL [2]: 150.8 mg/dL
- RALB [2]: 3.4 g/dL
- TBIL [2]: 0.1 mg/dL
- TP [2]: 5.7 g/dL
- gamma-GTP [2]: 1 IU/L
- ALP [3]: 890.2 IU/L
- ALT [3]: 30.8 IU/L
- AST [3]: 60.8 IU/L
- BUN [3]: 16.9 mg/dL
- CRE [3]: 0.5 mg/dL
- Ca [3]: 10.7 mg/dL
- Cl [3]: 101.2 meq/L
- DBIL [3]: 0.1 mg/dL
- GLC [3]: 219.8 mg/dL
- IP [3]: 7.1 mg/dL
- K [3]: 3.8 meq/L
- LDH [3]: 208.4 IU/L
- Na [3]: 140.6 meq/L
- PL [3]: 160.2 mg/dL
- RALB [3]: 3.4 g/dL
- TBIL [3]: 0.2 mg/dL
- TP [3]: 5.9 g/dL
- gamma-GTP [3]: 0.8 IU/L
- ALP [4]: 673 IU/L
- ALT [4]: 36.6 IU/L
- AST [4]: 68.4 IU/L
- BUN [4]: 17.8 mg/dL
- CRE [4]: 0.5 mg/dL
- Ca [4]: 10.3 mg/dL
- Cl [4]: 101.8 meq/L
- DBIL [4]: 0.098 mg/dL
- GLC [4]: 224.4 mg/dL
- IP [4]: 6.7 mg/dL
- K [4]: 3.4 meq/L
- LDH [4]: 150.8 IU/L
- Na [4]: 141.4 meq/L
- PL [4]: 148 mg/dL
- RALB [4]: 3.5 g/dL
- TBIL [4]: 0.1 mg/dL
- TP [4]: 6.2 g/dL
- gamma-GTP [4]: 1 IU/L
- TERMINAL_BW [5]: 234.6 g
- APTT [5]: 20.1 s
- Bas [5]: 0%
